From US10307418B2, “Azole pharmaceutical formulations for parenteral administration and methods for preparing and using the same as treatment of diseases sensitive to azole compounds” (Platform Brightworks Two, Ltd., priority 2010, dated 2019)
≈ marks a conversion by molar mass, not a printed value. Where “and” joins values, the source holds several entries; their conditions need not be identical. Equal values may be shown once. Read-outs that look alike come from different tables or passages of the source.

Columns and labels:
[1] = Plasma pharmacology after IV injection in mice
Experimental: (§1) Swiss Webster mice were used for pharmacokinetic studies of ITZA and its analogs. The dilation of the vein was accomplished by warming up the mice using a heat lamp. […] Mice were allowed to recover and blood samples were obtained through cardiac puncture under general anesthesia with Isoflurane/oxygen by vaporizer at various time points. Plasma was obtained by centrifugation of blood sample at 3,200 rpm for 5 min. at 4° C. Plasma proteins were precipitated by adding acetonitrile (twice the volume of plasma). The mixture was vortexed for 30 seconds and centrifuged for 5 min. at 14,000 rpm. The supernatant was saved and was injected into the HPLC to determine the respective drug concentrations.
(§2) Unless specified, the analogous experiments were performed using POSA as an alternative to ITZA; Swiss Webster mice of both sexes with a body weight of 25-30 g were used for the in vivo pharmacology experiments (Harlan-Sprague-Dawley, Houston, Tex.). The animals were allowed a minimum of 7 days after arrival to accommodate to the new environment and allowed free access to commercial feed and tap water prior to and during the experimentation period. The animals were housed in an Association for the Assessment and Accreditation of Laboratory Animal Care International (AAALAC)-approved facility that meets the requirements of the USDA, NIH, and DHHS.
(§3) The ITZA dose of 5 mg/kg BW was determined to be a suitable test dose that could be administered to the mice as a slow (3-4 min) IV bolus injection without requiring sedation, but could be performed with only minimal physical restraint of the animals in a standard funnel-type cage.
(§4) The ITZA was formulated in the H3 solvent system described above as the preferred solvent to a stock concentration of 4-5 mg/mL and then diluted with NS (ratio 1:1) so the intended dose (5.0 mg/kg BW) could be injected in a tail vein in a total volume of approximately 100 μL. […] No sedative premedication was used for the mice in this experiment to avoid the possible induction of microsomal liver enzymes that could modify ITZA metabolism. Thus, the animals were unanesthetized, being only physically restrained during and immediately following the drug injection.
(§5) Blood samples (0.5-1.0 mL) were drawn through cardiac puncture into heparinized tubes at selected time points prior to the drug infusion (“blank”), and from 5 min to 1 hour after drug injection for determination of ITZA concentrations, and for 5 min to about 7 hrs in the POSA experiment. The mice were exposed to 2% -4% isoflurane for general anesthesia. Blood samples were obtained through cardiac puncture and immediately deposited in heparinized microcentrifuge tubes.

[2] = Stability of ITZA/POSA in solvent vehicles (HPLC); assay type: physicochemical; set-up: POSA concentration: unit: mg/mL; details: for POSA concentration: single determination
[3] = Maximum solubility of ITZA and azole analogues in solvents (HPLC); assay type: physicochemical; details: for solubility at 30 min: organic solvent or mixture, thermodynamic from solid
Experimental: ITZA and its analogues were dissolved in various solvents incubated at 37° C. for 30 minutes, cooled down to room temperature, centrifuged at 14,000 rpm for 1 min. The supernatant was analyzed using HPLC to determine the maximum solubility of ITZA and its azole analogues.
In a first step the maximum ITZA solubility in various single solvents was determined. To this end, ITZA and its analogs were dissolved in various solvents, incubated at 37° C. for 30 minutes, cooled down to room temperature, centrifuged at 14,000 rpm for 1 min. The supernatant was analyzed using HPLC to determine the maximum solubility of the respective agent.
The solubility of ITZA was determined in several individual vehicles. Briefly, a known amount of ITZA drug, formulated as a powder (Sigma Inc., St Louis, Mo.), was equilibrated in the respective solvent at RT over 1-4 hours. An aliquot was removed, filtered, and prepared for HPLC to determine maximum solubility at room temperature. Based on the ITZA solubility in each vehicle, different solvents were mixed according to the cosolvency principle in an attempt to arrive at an enhanced stable solubility. […] The stock formulation was then diluted with a final diluent, i.e. NS or D5W or DlOW, to yield a stable use-formulation. The desired range of the final use-formulation was between 1 and 5 mg/mL, as it would result in a final volume that could be safely and conveniently infused intravascularly.
An excess of ITZA as a powder was added to a multitude of chemical solvents (Table 1) at RT. Each mixture was intermittently vortexed, placed in a dark environment and checked visually for up to 4 hours for evidence of solubilization. Following centrifugation to remove solid particles, small samples were withdrawn after consecutive time intervals and the ITZA concentration was determined by HPLC as described.

in vivo = details: both, Swiss Webster, mouse, plasma, iv, 5 mg/kg
Experimental: as §1, §2, §3, §4, §5

[4] = cited from earlier work
[5] = POSA in H3G/5% Dextrose., 24 hr

Q: With `CC[C@@H]([C@H](C)O)n1ncn(-c2ccc(N3CCN(c4ccc(OC[C@@H]5CO[C@@](Cn6cncn6)(c6ccc(F)cc6F)C5)cc4)CC3)cc2)c1=O` [POSA, posaconazole] as the molecule, how does the “tolerability of IV injection (in words)” value ([1]; 5.0 mg/kg BW, slow injection over 3-4 min) read?
A: well accepted

Q: And the “apparent in vivo half-life” value ([1]; 5 mg/kg IV)?
A: 6 to 7 h

Q: What about the “time plasma concentrations remain in the fungi-toxic range” value ([1]; IV dose of 5 mg/kg) of the same molecule?
A: in excess of one hour

Q: And the “peak concentration (plasma)” value ([1]; IV injection of 5 mg/kg over 4 min)?
A: 3.2 to 3.3 µg/mL

Q: And the “% of 0 hr” value ([2]; POSA in H3G, 0 hr)?
A: 100%

Q: And the “average” value ([2]; POSA in H3G, 0 hr)?
A: 3.70 mg/mL

Q: And the “POSA concentration” value ([2]; POSA in H3G, 0 hr)?
A: 3.76 and 3.69 and 3.66

Q: What about the “% of 0 hr” value ([2]; POSA in H3G, 2 hr) of the same molecule?
A: 102%

Q: And the “average” value ([2]; POSA in H3G, 2 hr)?
A: 3.78 mg/mL

Q: What about the “POSA concentration” value ([2]; POSA in H3G, 2 hr) of the same molecule?
A: 3.93 and 3.73 and 3.67

Q: What about the “% of 0 hr” value ([2]; POSA in H3G, 4 hr) of the same molecule?
A: 114%

Q: What about the “average” value ([2]; POSA in H3G, 4 hr) of the same molecule?
A: 4.23 mg/mL

Q: What about the “POSA concentration” value ([2]; POSA in H3G, 4 hr) of the same molecule?
A: 3.98 and 4.33 and 4.37

Q: And the “% of 0 hr” value ([2]; POSA in H3G, 6 hr)?
A: 114%

Q: What about the “average” value ([2]; POSA in H3G, 6 hr) of the same molecule?
A: 4.23 mg/mL

Q: And the “POSA concentration” value ([2]; POSA in H3G, 6 hr)?
A: 3.98 and 4.33 and 4.37

Q: And the “% of 0 hr” value ([2]; POSA in H3G, 8 hr)?
A: 97%

Q: And the “average” value ([2]; POSA in H3G, 8 hr)?
A: 3.57 mg/mL

Q: What about the “POSA concentration” value ([2]; POSA in H3G, 8 hr) of the same molecule?
A: 3.68 and 3.47 and 3.57

Q: What about the “% of 0 hr” value ([2]; POSA in H3G, 24 hr) of the same molecule?
A: 99%

Q: And the “average” value ([2]; POSA in H3G, 24 hr)?
A: 3.65 mg/mL

Q: And the “POSA concentration” value ([2]; POSA in H3G, 24 hr)?
A: 3.73 and 3.52 and 3.70

Q: What about the “% of 0 hr” value ([2]; POSA in H3G/5% Dextrose., 0 hr) of the same molecule?
A: 100%

Q: And the “POSA concentration” value ([2]; POSA in H3G/5% Dextrose., 0 hr)?
A: 1.76 and 1.68

Q: What about the “% of 0 hr” value ([2]; POSA in H3G/5% Dextrose., 2 hr) of the same molecule?
A: 109%

Q: What about the “POSA concentration” value ([2]; POSA in H3G/5% Dextrose., 2 hr) of the same molecule?
A: 1.84 and 1.81 and 2.02

Q: And the “% of 0 hr” value ([2]; POSA in H3G/5% Dextrose., 4 hr)?
A: 113%

Q: And the “POSA concentration” value ([2]; POSA in H3G/5% Dextrose., 4 hr)?
A: 1.92 and 1.91 and 2.03

Q: And the “% of 0 hr” value ([2]; POSA in H3G/5% Dextrose., 6 hr)?
A: 109%

Q: What about the “POSA concentration” value ([2]; POSA in H3G/5% Dextrose., 6 hr) of the same molecule?
A: 1.75 and 1.93 and 2.01

Q: What about the “% of 0 hr” value ([2]; POSA in H3G/5% Dextrose., 8 hr) of the same molecule?
A: 106%

Q: And the “POSA concentration” value ([2]; POSA in H3G/5% Dextrose., 8 hr)?
A: 1.71 and 1.89 and 1.92

Q: What about the “% of 0 hr” value [2, 5] of the same molecule?
A: 105%

Q: What about the “POSA concentration” value [2, 5] of the same molecule?
A: 1.78 and 1.80 and 1.87

Q: What about the “% of 0 hr” value ([2]; POSA in H3d, 0 hr) of the same molecule?
A: 100%

Q: And the “average” value ([2]; POSA in H3d, 0 hr)?
A: 3.78 mg/mL

Q: What about the “POSA concentration” value ([2]; POSA in H3d, 0 hr) of the same molecule?
A: 3.82 and 3.75 and 3.78

Q: And the “% of 0 hr” value ([2]; POSA in H3d, 2 hr)?
A: 100%

Q: And the “average” value ([2]; POSA in H3d, 2 hr)?
A: 3.79 mg/mL

Q: What about the “POSA concentration” value ([2]; POSA in H3d, 2 hr) of the same molecule?
A: 3.67 and 3.81 and 3.89

Q: What about the “% of 0 hr” value ([2]; POSA in H3d, 4 hr) of the same molecule?
A: 112%

Q: What about the “average” value ([2]; POSA in H3d, 4 hr) of the same molecule?
A: 4.24 mg/mL

Q: What about the “POSA concentration” value ([2]; POSA in H3d, 4 hr) of the same molecule?
A: 4.00 and 4.15 and 4.56

Q: What about the “% of 0 hr” value ([2]; POSA in H3d, 6 hr) of the same molecule?
A: 118%

Q: And the “average” value ([2]; POSA in H3d, 6 hr)?
A: 4.45 mg/mL

Q: And the “POSA concentration” value ([2]; POSA in H3d, 6 hr)?
A: 4.20 and 4.32 and 4.82

Q: What about the “% of 0 hr” value ([2]; POSA in H3d, 8 hr) of the same molecule?
A: 106%

Q: What about the “average” value ([2]; POSA in H3d, 8 hr) of the same molecule?
A: 3.99 mg/mL

Q: And the “POSA concentration” value ([2]; POSA in H3d, 8 hr)?
A: 4.18 and 3.77 and 4.03

Q: What about the “% of 0 hr” value ([2]; POSA in H3d, 24 hr) of the same molecule?
A: 101%

Q: What about the “average” value ([2]; POSA in H3d, 24 hr) of the same molecule?
A: 3.83 mg/mL

Q: What about the “POSA concentration” value ([2]; POSA in H3d, 24 hr) of the same molecule?
A: 3.81 and 3.75 and 3.92

Q: What about the “% of 0 hr” value ([2]; POSA in H3d/5% Dextrose, 0 hr) of the same molecule?
A: 100%

Q: And the “POSA concentration” value ([2]; POSA in H3d/5% Dextrose, 0 hr)?
A: 1.75 and 1.77 and 1.81

Q: What about the “% of 0 hr” value ([2]; POSA in H3d/5% Dextrose, 2 hr) of the same molecule?
A: 100%

Q: And the “POSA concentration” value ([2]; POSA in H3d/5% Dextrose, 2 hr)?
A: 1.77 and 1.74 and 1.83

Q: What about the “% of 0 hr” value ([2]; POSA in H3d/5% Dextrose, 4 hr) of the same molecule?
A: 111%

Q: And the “POSA concentration” value ([2]; POSA in H3d/5% Dextrose, 4 hr)?
A: 1.88 and 1.81 and 2.20

Q: What about the “% of 0 hr” value ([2]; POSA in H3d/5% Dextrose, 6 hr) of the same molecule?
A: 109%

Q: And the “POSA concentration” value ([2]; POSA in H3d/5% Dextrose, 6 hr)?
A: 1.95 and 1.93 and 1.94

Q: What about the “% of 0 hr” value ([2]; POSA in H3d/5% Dextrose, 8 hr) of the same molecule?
A: 102%

Q: What about the “POSA concentration” value ([2]; POSA in H3d/5% Dextrose, 8 hr) of the same molecule?
A: 1.86 and 1.68 and 1.90

Q: What about the “% of 0 hr” value ([2]; POSA in H3d/5% Dextrose, 24 hr) of the same molecule?
A: 103%

Q: What about the “POSA concentration” value ([2]; POSA in H3d/5% Dextrose, 24 hr) of the same molecule?
A: 1.78 and 1.79 and 1.93

Q: What about the solubility at 30 min ([3]; solvent H3D (no benzyl alcohol), solvent H3D (no benzyl alcohol), single determination, read-out: Azole solubility, [Drug] mg/mL) of the same molecule?
A: 33.8 mg/mL (≈ 48.2 mM)

Q: And the solubility at 30 min ([3]; solvent H3D (no benzyl alcohol), solvent H3D (no benzyl alcohol), read-out: Azole solubility, Average mg/mL)?
A: 35.3 mg/mL (≈ 50.4 mM)

Q: What about the “Azole solubility, [Drug] mg/mL” value ([3]; solvent H3D (no benzyl alcohol), single determination) of the same molecule?
A: 35.08 mg/mL and 37.14 mg/mL

Q: And the solubility at 30 min ([3]; solvent H3G (no benzyl alcohol), solvent H3G (no benzyl alcohol), single determination, read-out: Azole solubility, [Drug] mg/mL)?
A: 30.6 mg/mL (≈ 43.7 mM)

Q: And the solubility at 30 min ([3]; solvent H3G (no benzyl alcohol), solvent H3G (no benzyl alcohol), read-out: Azole solubility, Average mg/mL)?
A: 32.2 mg/mL (≈ 45.9 mM)

Q: What about the “Azole solubility, [Drug] mg/mL” value ([3]; solvent H3G (no benzyl alcohol), single determination) of the same molecule?
A: 33.86 mg/mL and 32.04 mg/mL

Q: And the half-life (in vivo)?
A: 6 to 7 h

Q: And the known plasma half-life ([4]; literature (Ref 24, 32, 42, 45))?
A: 25 to 35 h

Q: What about the “half-life after oral administration” value ([4]; oral drug, literature) of the same molecule?
A: 15 to 30 h
